Assay results: US20130331389A1, “Methods and Compositions for Cardiomyocyte Replenishment by Endogenous and Progenitor Stem Cells” (NATIONAL CHENG KUNG UNIVERSITY, priority 2012, published 2013)

Tests used:
Type in all cases: in vivo, mouse
Sca-1 = experiment: Quantitative RT-PCR of Sca-1 in infarct zone of MI heart; conditions: day 3 post-MI
Protocol: (§1) To induce Cre recombination to achieve GFP labeling of cardiomyocytes, tamoxifen (Sigma) was dissolved in sunflower oil (Sigma) at a concentration of 5 mg/ml. The tamoxifen solution was injected intraperitoneally into M/Z mice daily at a dosage of 40 μg per 1 g body weight for 14 days, and the same dosage was injected twice daily for short-term labeling using methods known in the art (Laugwitz, K.-L. et al. Nature 433, 647-653 (2005)). All experimental conditions were optimized prior to the PGE2, indomethacin and TGF-β Type I Receptor Kinase Inhibitor II (ALK5 Inhibitor II, ALK5i, Merck) treatments. The mice treated with PGE2 or PGI2 (Vegiopoulos, A. et al. Science 328, 1158-1161 (2010)) (both from Sigma) were injected intraperitoneally with 3.33 ng of drug per 1 g of body weight dissolved in absolute ethanol twice daily. For the indomethacin treatment, mice were fed with water containing indomethacin (Sigma, 15 μg/ml) for different periods of time. The indomethacin-containing water was changed every 3 days. The mice subjected to the celecoxib (Lyons, T. R. et al. Nat. Med. 17, 1109-1115 (2011)) (Sigma) treatment were injected intraperitoneally with 5 μg of drug per 1 g of body weight daily. For ALK5i treatment, aged mice were injected intraperitoneally once per day with 1 μg of drug per 1 g of body weight one day before surgery and continuously until day 10 post-MI. Celecoxib and ALK5i were dissolved in ethanol and DMSO, respectively.
(§2) The total RNA isolated from the ischemic region or remote area of MI hearts was reverse transcribed using the SuperScript III (Invitrogen) system according to the manufacturer's protocol. For quantitative PCR, the SYBR Green reagent (Maestrogen) was used according to the manufacturer's protocol. The analysis of relative gene expression was performed using the 2̂[−delta delta Ct] method and sequence-specific primers designed for semi-quantitative PCR and real-time RT-PCR (FIG. 11).

MerCreMer/ZEG (M/Z) mice = experiment: Cardiomyocyte replenishment after myocardial infarction, GFP+ / β-Gal+ cardiomyocyte counting; conditions: for stem cell-mediated cardiomyocyte reconstitution: aged mice (>18 months), 14 days post-MI
Protocol: All experiments involving animals were conducted in accordance with the Guide for the Use and Care of Laboratory Animals, and all animal protocols have been approved by National Cheng Kung University. Sca-1^− GFP, B6.Cg-Tg(Ly6a-GFP)G5Dzk/J and EP2^−/−, B6.129-Ptger2^tm/Brey/J mice were obtained from Jackson Laboratory. The double transgenic MerCreMer/ZEG (M/Z) mice were generated by crossbreeding MerCreMer and Z/EG mice (Jackson Laboratory), which have C57BL/6SV129 and C57BL/6J (N7) background strains, respectively. The MerCreMer mice contain a tamoxifen-inducible Cre recombinase fusion protein driven by the cardiomyocyte-specific α-MHC promoter. In Z/EG mice, GFP replace constitutive β-Gal expression after the removal of a LoxP-flanked stop sequence by Cre.
M/Z mice were subjected to experimental myocardial infarction (MI) one month after the last tamoxifen injection. MI was generated by ligating the left anterior descending coronary artery at 2-3 mm distal to the left atrial appendage. For cell transplantation experiments, intramyocardial injections were performed immediately after coronary ligation. A total of 6×10^5 cardiac Sca-1^+ cells were injected per mouse in two divided injections (5 μl/injection). For BrdU labeling, the mice were subcutaneously implanted with osmotic minipump (Alzet) at the time of surgery and 40 μg/μl of BrdU (Sigma) was administrated. For immunohistological studies, mice were sacrificed and the hearts were harvested at different time points following experimental MI surgery. Cardiac performances were assessed by echocardiography at 28 and 56 days after operation using Vevo 770 (Visualsonics, Toronto, Canada).
as §1
All of the cellular quantifications were performed double-blindly to minimize personal bias. […] For the cardiomyocyte cell counts, 3 sections from each heart, and 2 infarction border zones and 1 remote area from each section were analyzed at a magnification of 200× by light microscopy. Cells with visible sarcomere structures were analyzed, and the average number of cells counted was 171.8±5.8 per photo image. For the small cardiac cell counts, more than five sections from each heart were analyzed at a magnification of 400× using fluorescence microscopy. The average number of cells counted was 17.01±0.99 per photo image, and more than one hundred and fifty cells were analyzed from each heart. As quantification result is the averaged values calculated from the pictures taken from six border zone sections per heart, personal variation has been minimized. […]

B220 = experiment: Quantitative RT-PCR of B cell marker B220 in infarct region; conditions: both young and old mice; day 3 post-infarction
Protocol: To induce Cre recombination to achieve GFP labeling of cardiomyocytes, tamoxifen (Sigma) was dissolved in sunflower oil (Sigma) at a concentration of 5 mg/ml. The tamoxifen solution was injected intraperitoneally into M/Z mice daily at a dosage of 40 μg per 1 g body weight for 14 days, and the same dosage was injected twice daily for short-term labeling using methods known in the art (Laugwitz, K.-L. et al. Nature 433, 647-653 (2005)). All experimental conditions were optimized prior to the PGE2, indomethacin and TGF-β Type I Receptor Kinase Inhibitor II (ALK5 Inhibitor II, ALK5i, Merck) treatments. The mice treated with PGE2 or PGI2 (Vegiopoulos, A. et al. Science 328, 1158-1161 (2010)) (both from Sigma) were injected intraperitoneally with 3.33 ng of drug per 1 g of body weight dissolved in absolute ethanol twice daily. […]
as §2

## CCCCC[C@H](O)/C=C/C1C(O)CC(=O)C1C/C=C\CCCC(=O)O (stereo partly drawn) [PGE2, (5Z,11α,13E,15S)-7-[3-hydroxy-2-(3-hydroxyoct-1-enyl)-5-oxo-cyclopentyl]hept-5-enoic acid]
Sca-1; aged animals
  Sca-1 expression: restored Sca-1 expression to levels similar to those in young mice
Sca-1; young mice
  Sca-1 expression: further increased
MerCreMer/ZEG (M/Z) mice; border zone, P<0.01 versus sham or MI
  stem cell-mediated cardiomyocyte reconstitution: successfully recover
MerCreMer/ZEG (M/Z) mice; remote area
  stem cell-mediated cardiomyocyte reconstitution: not in the remote area
MerCreMer/ZEG (M/Z) mice; border zone, PGE2 plus indomethacin, P<0.01
  rescue of cardiomyocyte replenishment compared to indomethacin treatment alone: about 10%
MerCreMer/ZEG (M/Z) mice; border zone, young mice, 3.33 ng per 1 g i.p. twice daily for 14 days, P<0.01
  increase of cardiomyocyte replenishment compared to the vehicle control: about 9%
B220
  B220 level: reduced
